Source: patent US6458357B1, “Retro-inverso neurotrophic and analgesic peptides” (Myelos Corporation, priority 1997, dated 2002)
“Also recorded” adds a separate entry of the source. Where a SMILES comes first, the peptide text is derived from it. Where no end group is shown, it is not given here. [ ]: non-standard residue; d: D form.

What was measured:
[1] = tested on: NS20Y neuroblastoma cells; assay: NS20Y neuroblastoma neurite outgrowth assay; type: cell-based; conditions: for neurite outgrowth (neuritogenic activity): 0.5-8 ng/ml peptide, 24 hours, DMEM 0.5% FCS
Procedure: NS20Y neuroblastoma cells were grown in DMEM containing 10% fetal calf serum (FCS). Cells were removed with trypsin and plated in 30 mm petri dishes onto glass coverslips. After 20-24 hours, the medium was replaced with 2 ml DMEM containing 0.5% FCS plus 0, 0.5, 1, 2, 4 or 8 ng/ml effector peptides. Cells were cultured for an additional 24 hours, washed with PBS and fixed with Bouin's solution (saturated aqueous picric acid/formalin/acetic acid 15:5:1) for 30 minutes. Fixative was removed with PBS and neurite outgrowth was scored under a phase contrast microscope. […] At least 200 cells were scored in different portions of each dish to determine the percentage of neurite bearing cells and assays were performed in duplicate.
Increased neurite outgrowth was evident using as little as 0.5 ng/ml peptide.

[2] = tested on: newborn mouse cerebellar explants; assay: Ex vivo myelination assay in newborn mouse cerebellar explants; type: cell-based; conditions: added on second day, observed for 22 days in culture; saposin C positive control 1-10 μg/ml
Procedure: Newborn mouse cerebellar explants are prepared according to Satomi (Zool. Sci. 9:127-137, 1992). Neurite outgrowth and myelination are observed for 22 days in culture, during the period when the newborn mouse cerebellum normally undergoes neuronal differentiation and myelination begins. D2, D3, D4, D5 or another peptide including SEQ ID NO: 12 is added on the second day after preparation of the explants (three control and three treated explants) and outgrowth of neurites and myelination are assessed under a bright field microscope with a video camera. Saposin C is used as a positive control at a concentration of between about 1 and 10 μg/ml.

[3] = tested on: NS20Y neuroblastoma cells; assay: Cell death assay, trypan blue staining of NS20Y cells in low serum; type: cell-based; conditions: for reduction of the number of trypan blue-positive (dead) cells: NS20Y cells, 8 ng/ml peptide, 2 days in 0.5% fetal bovine serum; for prevention of cell death: neuroblastoma cells in culture
Procedure: NS20Y cells were plated as described in Example 1 and grown on glass coverslips in 0.5% fetal bovine serum for 2 days in the presence or absence of 8 ng/ml effector peptides. Media was removed and 0.2% trypan blue in PBS was added to each well. Blue-staining dead cells were scored as a percentage of the total on an inverted microscope, counting 400 cells in four areas of each well. The average error of duplicates was ±5%.

neurite outgrowth = conditions: system not specified; cited from earlier work
[4] = in vivo; cited from earlier work
[5] = Localization of 125I-labelled peptide D4 in organs after intramuscular injection
Procedure: After 20 min., the rat was anesthetized, perfused with PBS and the organs removed and counted in a gamma counter.

[6] = Integrity (intactness) of peptide D4 in organs by HPLC 60 minutes after injection; type: in vivo, rat
Procedure: In another study, an aliquot of brain, liver, lung and kidney was taken 60 minutes after injection for HPLC analyses (Vydac C4 column) to determine the integrity (intactness) of the peptide in brain, blood and kidney. Peptide D4 was 95% intact in these organs, indicating the in vivo stability of this peptide after 60 minutes. The peak at 16 min. is intact D4; a breakdown product peak is evident at 4 min.

neuroblastoma cells [7] = conditions: cited from earlier work
neuroblastoma cells [8] = conditions: neuroblastoma cells in vitro; cited from earlier work
[9] = tested on: choline acetyltransferase activity; conditions: neuroblastoma cells in vitro; cited from earlier work
[10] = tested on: mouse cerebellar explants; conditions: cited from earlier work

Molecule: peptide D2: YLIEETANNDILAT, all D-amino acids; SEQ ID NO: 5; retro-inverted TX14(A) ([dY][dL][dI][dE][dE][dT][dA][dN][dN][dD][dI][dL][dA][dT]; also: retro-inverted)
- neurite outgrowth activity compared with TX14(A) [1]: slightly more active that TX14(A); also recorded: slightly more effective than TX14(A)
- neurite outgrowth (neuritogenic activity) [1]: exhibited neuritogenic activity; also recorded: induced neurite outgrowth
- stimulation of myelination [2]: to a similar extent as with saposin C
- reduction of the number of trypan blue-positive (dead) cells [3]: about 50%
- prevention of cell death [3]: prevented cell death in neuroblastoma cells in culture to the same extent

Molecule: rat 14-mer: rat 14-mer derived from the saposin C active sequence, SELIINNATEELLY; SEQ ID NO: 6 (Homo Sapien) [reference compound]
- neurite outgrowth (neuritogenic activity) [1]: induced neurite outgrowth

Molecule: 18-mer: YKEVTKLIDNNKTEKEIL; SEQ ID NO: 2; within the active 22-mer of saposin C, V replaced by Y (Homo Sapien)
- neurite outgrowth (neurite outgrowth): promotes neurite outgrowth
- crossing of the blood-brain barrier [4]: crosses the blood brain barrier; also recorded: able to cross the blood-brain barrier

Molecule: TX14(A): TXLIDNNATEEILY, X=D-alanine; SEQ ID NO: 4; modified 15-mer of human saposin C (T[dA]LIDNNATEEILY) [TX…, X=D-alanine; modified 15-mer of human saposin C, reference compound]
- neurite outgrowth (neuritogenic activity) [1]: exhibited neuritogenic activity; also recorded: induced neurite outgrowth
- reduction of the number of trypan blue-positive (dead) cells [3]: about 50%
- prevention of cell death [3]: prevented cell death in neuroblastoma cells in culture to the same extent

Molecule: CC(C)C[C@@H](NC(=O)[C@@H](CC(C)C)NC(=O)[C@@H](CC(=O)O)NC(=O)[C@@H](CC(N)=O)NC(=O)[C@@H](CC(N)=O)NC(=O)[C@@H](C)NC(=O)[C@H](NC(=O)[C@@H](CCC(=O)O)NC(=O)[C@@H](CCC(=O)O)NC(=O)[C@@H](CC(C)C)NC(=O)[C@@H](CC(C)C)NC(=O)[C@H](N)Cc1ccc(O)cc1)[C@H](C)O)C(=O)O [peptide D4] (H-[dY][dL][dL][dE][dE][dT][dA][dN][dN][dD][dL][dL]-OH; N-terminus and C-terminus assumed)
- presence of peptide in the brain ([5]; after intramuscular injection into a rat): significant amounts
- concentration in brain relative to required neurotrophic dose for neural cells determined in vitro ([5]; brain, 20 min after 200 μg/kg intramuscular, rat): approximately 20 times
- in vivo stability ([6]; 60 minutes after injection): stable in vivo
- crossing of the blood brain barrier ([6]; after intramuscular injection, rat): crosses the blood brain barrier in amounts sufficient to exert a therapeutic effect

Molecule: D3: retro-inverso peptide YLEETANNDLLAT; SEQ ID NO: 11 ([dY][dL][dE][dE][dT][dA][dN][dN][dD][dL][dL][dA][dT]; also: retro-inverso)
- neurite outgrowth (neuritogenic activity) [1]: promoted neurite outgrowth in vitro
- stimulation of myelination [2]: to a similar extent as with saposin C

Molecule: 22-mer: CEFLVKEVTKLIDNNKTEKEIL; SEQ ID NO: 1; amino acids 8-29 of human saposin C (Homo Sapien)
- neurite outgrowth (neuroblastoma cells [7]): stimulates neurite outgrowth
- prevention of cell death (neuroblastoma cells [8]): prevented cell death
- choline acetyltransferase activity [9]: stimulates choline acetyltransferase activity
- neurite outgrowth [10]: stimulates neurite outgrowth

B1: saposin C: small heat-stable glycoprotein generated by proteolytic processing of prosaposin (protein, UniProt P07602 311-390, looked up)
Saposin-C: SDVYCEVCEFLVKEVTKLIDNNKTEKEILDAFDKMCSKLPKSLSEECQEVVDTYGSSILSILLEEVSPELVCSMLHLCSG
modifications: Saposin-C
- myelination (neurite outgrowth): promote increased myelination
- neurite outgrowth (neurite outgrowth): stimulate neurite outgrowth
